{
  "source": "patent US5750361A",
  "about": "(priority 1995, dated 1998)",
  "key": {"[^35 S-]PrP^C": {"system": "[^35 S-]PrP^C", "type": "biochemical, Syrian hamster"}, "proteinase K": {"system": "proteinase K", "type": "biochemical"}, "[^35 S-]SHaPrP^C": {"target": "[^35 S-]SHaPrP^C (Mesocricetus auratus, UniProt P04273)", "sequence (P04273 23-254 limits assumed)": "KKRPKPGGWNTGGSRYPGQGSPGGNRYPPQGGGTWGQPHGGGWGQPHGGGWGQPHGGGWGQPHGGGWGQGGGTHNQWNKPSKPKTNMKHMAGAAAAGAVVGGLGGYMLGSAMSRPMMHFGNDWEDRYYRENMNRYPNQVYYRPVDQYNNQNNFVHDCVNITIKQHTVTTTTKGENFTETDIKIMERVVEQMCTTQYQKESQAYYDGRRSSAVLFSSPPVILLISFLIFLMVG", "type": "biochemical"}},
  "note": "“Also recorded” adds a separate entry of the source. Structures can show the parent of a compound that is named as a salt.",
  "data": [
    {"smiles": "N=C(N)N", "note": "[Gdn-HCl, guanidine hydrochloride]", "values": [
      {"measurement": "Requirement of Gdn-HCl for complex formation", "setting": "[^35 S-]PrP^C", "result": "seemed to be essential"},
      {"measurement": "Reduction of proteinase K activity", "setting": "proteinase K", "result": "~ 90%"}
    ]},
    {"smiles": "CCCCCCCCCCCC(=O)N(C)CC(=O)O", "note": "[Sarkosyl]", "values": [
      {"measurement": "Effect of Sarkosyl on PrP^C /PrP peptide complexes", "setting": "[^35 S-]SHaPrP^C", "result": "disrupted the prion protein complexes and rendered the PrP^C sensitive to protease activity; also recorded: disrupted the PrP^C /PrP peptide complexes and rendered the PrP^C sensitive to protease activity"}
    ]}
  ]
}
